Assay results from patent US8362000B2, “Azetidinyl diamides as monoacylglycerol lipase inhibitors” (Janssen Pharmaceutica NV, priority 2009, dated 2013).

molecular target: T1, mutant MGL (Homo sapiens, UniProt Q99685, L169S/L176S); experiment: MGL ThermoFluor assay - mutant; format: binding; settings: ThermoFluor concentration-response, read-out: MGL mutant ThermoFluor Kd
T1 sequence (Q99685 1-303 L169S/L176S): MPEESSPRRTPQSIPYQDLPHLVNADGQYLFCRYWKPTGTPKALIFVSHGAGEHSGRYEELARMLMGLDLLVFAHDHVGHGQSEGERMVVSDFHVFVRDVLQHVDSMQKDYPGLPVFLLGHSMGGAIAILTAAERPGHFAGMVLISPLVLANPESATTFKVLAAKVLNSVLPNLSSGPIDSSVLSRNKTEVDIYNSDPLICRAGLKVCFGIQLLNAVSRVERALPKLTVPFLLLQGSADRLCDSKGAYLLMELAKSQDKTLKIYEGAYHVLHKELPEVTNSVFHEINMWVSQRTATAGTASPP

Structure (SMILES)	Kd
O=C(c1ccccc1)N1CCN(C2CN(C(=O)c3cccn(Cc4cccc(Cl)c4)c3=O)C2)CC1 [Cpd 562, 1-(3-Chlorobenzyl)-3-({3-[4-(phenylcarbonyl)piperazin-1-yl]azetidin-1-yl}carbonyl)pyridin-2(1H)-one]	> 31.2 µM
O=C(c1ccccc1)N1CCN(C2CN(C(=O)c3ccc(=O)n(Cc4ccccc4)c3)C2)CC1 [Cpd 565, 1-Benzyl-5-({3-[4-(phenylcarbonyl)piperazin-1-yl]azetidin-1-yl}carbonyl)pyridin-2(1H)-one]	> 31.2 µM
O=C(c1ccccc1)N1CCN(C2CN(C(=O)c3nc(-c4ccccc4)oc3C(F)(F)F)C2)CC1 [Cpd 625, 1-(Phenylcarbonyl)-4-(1-{[2-phenyl-5-(trifluoromethyl)-1,3-oxazol-4-yl]carbonyl}azetidin-3-yl)piperazine]	> 31.2 µM
O=C(c1ccccc1)N1CCN(C2CN(C(=O)c3cnn(-c4ccccc4)c3C(F)(F)F)C2)CC1 [Cpd 626, 1-(Phenylcarbonyl)-4-(1-{[1-phenyl-5-(trifluoromethyl)-1H-pyrazol-4-yl]carbonyl}azetidin-3-yl)piperazine]	5.02 µM
O=C(c1ccccc1)N1CCN(C2CN(C(=O)c3cccc(-n4cccc4)c3)C2)CC1 [Cpd 627, 1-(Phenylcarbonyl)-4-(1-{[3-(1H-pyrrol-1-yl)phenyl]carbonyl}azetidin-3-yl)piperazine]	10 µM
O=C(c1cscn1)N1CCN(C2CN(C(=O)C3CCC(C(F)(F)F)CC3)C2)CC1 (centres unmarked) [Cpd 644]	> 76.7 µM
O=C(c1cc(Br)cc(C(F)(F)F)c1)N1CC(N2CCN(C(=O)c3cscn3)CC2)C1 [Cpd 923]	9.93 µM
O=C(c1cscn1)N1CCN(C2CN(C(=O)c3cc(Br)ccc3F)C2)CC1 [Cpd 925]	> 62.5 µM
O=C(c1cc(F)cc(Br)c1)N1CC(N2CCN(C(=O)c3cscn3)CC2)C1 [Cpd 926]	9.44 µM
O=C(c1ccc(CS(=O)(=O)c2cccc(C(F)(F)F)c2)cc1)N1CC(N2CCN(C(=O)c3cscn3)CC2)C1 [Cpd 977]	20 µM

Next, values leading:

Kd	Structure (SMILES)
0.249 µM	O=C(c1ccccc1)N1CCN(C2CN(C(=O)c3ccc4c(ccn4-c4ncc(F)cn4)c3)C2)CC1 [Cpd 598, 1-(5-Fluoropyrimidin-2-yl)-5-({3-[4-(phenylcarbonyl)piperazin-1-yl]azetidin-1-yl}carbonyl)-1H-indole]
0.08 µM	Cc1nc(-c2cccc(C(F)(F)F)c2)sc1C(=O)N1CC(N2CCN(C(=O)c3ccccc3)CC2)C1 [Cpd 618, 1-[1-({4-Methyl-2-[3-(trifluoromethyl)phenyl]-1,3-thiazol-5-yl}carbonyl)azetidin-3-yl]-4-(phenylcarbonyl)piperazine]
0.172 µM	Cc1nc(-c2ccc(Cl)cc2)sc1C(=O)N1CC(N2CCN(C(=O)c3ccccc3)CC2)C1 [Cpd 619]
0.154 µM	Cc1nc(-c2cccc(Cl)c2)sc1C(=O)N1CC(N2CCN(C(=O)c3ccccc3)CC2)C1 [Cpd 620, 1-(1-{[2-(3-Chlorophenyl)-4-methyl-1,3-thiazol-5-yl]carbonyl}azetidin-3-yl)-4-(phenylcarbonyl)piperazine]
0.263 µM	Cc1nc(-c2ccc(F)cc2)sc1C(=O)N1CC(N2CCN(C(=O)c3ccccc3)CC2)C1 [Cpd 621, 1-(1-{[2-(4-Fluorophenyl)-4-methyl-1,3-thiazol-5-yl]carbonyl}azetidin-3-yl)-4-(phenylcarbonyl)piperazine]
3.6 µM	O=C(c1ccccc1)N1CCN(C2CN(C(=O)c3ccc(-n4ccc(C(F)(F)F)n4)cc3)C2)CC1 [Cpd 622, 1-(Phenylcarbonyl)-4-[1-({4-[3-(trifluoromethyl)-1H-pyrazol-1-yl]phenyl}carbonyl)azetidin-3-yl]piperazine]
1 µM	Cc1oc(-c2ccccc2)cc1C(=O)N1CC(N2CCN(C(=O)c3ccccc3)CC2)C1 [Cpd 623, 1-{1-[(2-Methyl-5-phenylfuran-3-yl)carbonyl]azetidin-3-yl}-4-(phenylcarbonyl)piperazine]
0.88 µM	O=C(c1ccccc1)N1CCN(C2CN(C(=O)c3cc(-c4ccccc4)oc3C(F)(F)F)C2)CC1 [Cpd 624, 1-(Phenylcarbonyl)-4-(1-{[5-phenyl-2-(trifluoromethyl)furan-3-yl]carbonyl}azetidin-3-yl)piperazine]
1 µM	O=C(c1cscn1)N1CCN(C2CN(C(=O)C3CCC(c4ccc(Cl)cc4)CC3)C2)CC1 (centres unmarked) [Cpd 643]
1.33 µM	O=C(c1cc(Br)cc(C(F)(F)F)c1)N1CC(N2CCN(C(=O)c3nccs3)CC2)C1 [Cpd 910]
0.333 µM	O=C(c1ccc2[nH]ccc2c1)N1CC(N2CCN(C(=O)c3nccs3)CC2)C1 [Cpd 911, 5-({3-[4-(1,3-Thiazol-2-ylcarbonyl)piperazin-1-yl]azetidin-1-yl}carbonyl)-1H-indole]
1.32 µM	O=C(c1cc(F)cc(Br)c1)N1CC(N2CCN(C(=O)c3nccs3)CC2)C1 [Cpd 912]
1 µM	O=C(c1ccc(Oc2ccccn2)cc1)N1CC(N2CCN(C(=O)c3nccs3)CC2)C1 [Cpd 913, 1-(1-{[4-(Pyridin-2-yloxy)phenyl]carbonyl}azetidin-3-yl)-4-(1,3-thiazol-2-ylcarbonyl)piperazine]
5 µM	O=C(c1nccs1)N1CCN(C2CN(C(=O)c3cc(Br)ccc3F)C2)CC1 [Cpd 915]
4.26 µM	O=C(c1cnon1)N1CC(N2CCN(C(=O)c3cc4cc(C(F)(F)F)ccc4s3)CC2)C1 [Cpd 921, 1-[1-(1,2,5-Oxadiazol-3-ylcarbonyl)azetidin-3-yl]-4-{[5-(trifluoromethyl)-1-benzothiophen-2-yl]carbonyl}piperazine]
3.89 µM	O=C(c1ccc(Oc2ccccn2)cc1)N1CC(N2CCN(C(=O)c3cscn3)CC2)C1 [Cpd 922]
1.11 µM	O=C(c1ccc(CSc2cccc(Cl)c2)cc1)N1CC(N2CCN(C(=O)C(F)(F)F)CC2)C1 [Cpd 955]
0.216 µM	O=C(c1ccc(OCc2cccc(Cl)c2)cc1)N1CC(N2CCN(C(=O)C(F)(F)F)CC2)C1 [Cpd 958]
0.576 µM	O=C(c1ccc(OCc2ccc(Cl)s2)cc1)N1CC(N2CCN(C(=O)C(F)(F)F)CC2)C1 [Cpd 961]
0.334 µM	Cc1nc(COc2ccc(Cl)cc2)sc1C(=O)N1CC(N2CCN(C(=O)c3cscn3)CC2)C1 [Cpd 966]
0.005 µM	O=C(c1ccc(Cc2ccc(C(F)(F)F)cc2)cc1)N1CC(N2CCN(C(=O)c3nccs3)CC2)C1 [Cpd 985]

same assay, conditions: ThermoFluor thermal stability binding assay, read-out: MGL mutant ThermoFluor Kd

Kd	Structure (SMILES)
5 µM	CC(=O)N1c2ccc(-c3cccc(C(F)(F)F)c3)cc2CCC1C(=O)N1CC(N2CCN(C(=O)c3nccs3)CC2)C1 (centres unmarked) [Cpd 917]
2.5 µM	O=C1Cc2cc(C(=O)N3CC(N4CCN(C(=O)c5nccs5)CC4)C3)ccc2N1 [Cpd 918]
0.005 µM	O=C(c1ccc(OCc2ccc(Cl)s2)cc1)N1CC(N2CCN(C(=O)c3nccs3)CC2)C1 [Cpd 962]
0.102 µM	O=C(c1ccc(OCc2ccc(Cl)s2)cc1)N1CC(N2CCN(C(=O)c3cscn3)CC2)C1 [Cpd 963]
0.535 µM	O=C(c1ccc(OCc2ccc3ccccc3n2)cc1)N1CC(N2CCN(C(=O)c3cscn3)CC2)C1 [Cpd 970]
0.937 µM	O=C(c1ccc(OCc2cncc(Cl)c2)cc1)N1CC(N2CCN(C(=O)c3cscn3)CC2)C1 [Cpd 981]

same assay, conditions: ThermoFluor, compound concentration measured by qNMR, read-out: MGL mutant ThermoFluor qKd (μM) (using qNMR conc.)

Kd	Structure (SMILES)
0.512 µM	N#Cc1ccccc1-n1ccc2cc(C(=O)N3CC(N4CCN(C(=O)c5ccccc5)CC4)C3)ccc21 [Cpd 588, 2-[5-({3-[4-(Phenylcarbonyl)piperazin-1-yl]azetidin-1-yl}carbonyl)-1H-indol-1-yl]benzonitrile]
